Assay results taken from US8759334B2, “Compounds useful for the treatment of metabolic and inflammatory diseases” (Galapagos NV, priority 2011, dated 2014).

Columns and labels:
GPR43 [1] = molecular target: T1, GPR43 (Homo sapiens, UniProt O15552); experiment: Calcium mobilization assay without probenecid; assay type: cell-based; settings: GPR43 stably expressing cells, triggered with sodium acetate at EC80, read-out: GPR43 assay without probenicid IC50
T1 construct: expressed in transfected cells
T1 sequence (O15552 1-330): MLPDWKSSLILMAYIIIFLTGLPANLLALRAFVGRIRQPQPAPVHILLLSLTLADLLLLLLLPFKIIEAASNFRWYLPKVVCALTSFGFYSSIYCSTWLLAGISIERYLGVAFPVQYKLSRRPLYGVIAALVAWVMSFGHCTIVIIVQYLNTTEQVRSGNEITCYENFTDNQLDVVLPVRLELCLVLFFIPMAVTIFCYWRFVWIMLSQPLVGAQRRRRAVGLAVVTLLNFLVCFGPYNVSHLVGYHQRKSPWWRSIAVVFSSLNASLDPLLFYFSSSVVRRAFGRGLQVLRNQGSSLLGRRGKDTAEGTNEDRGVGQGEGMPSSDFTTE
Experimental: The following assay can be used for determination of GPR43 activation. The assay measures intracellular calcium release induced by activation of GPR43. On day 1, GPR43 stably expressing cells were detached with mild trypsinization (Trypsin, 0.25% with EDTA 4Na, 5× diluted in PBS) centrifuged at 1000 rpm for 5 min and resuspended at 6.000 cells/25 μL medium (DMEM supplemented with 10% FBS, 10 μg/mL puromycin and 1% Pen/Strep). The cells were distributed in poly-D-lysine coated 384 well plates (black with clear bottom, 25 μL/well) and incubated overnight at 37° C. 10% CO2. On day 2, 25 μL of a fluorescent Ca^2+ indicator (Calcium 4 assay; Molecular Devices) was added on top of the cells and incubated for 2 h at 37° C. Subsequently, compounds at increasing concentration (10 μL/well) were added to the plate and incubated for 15 min at 37° C. Finally the cells were triggered with sodium acetate at EC80 concentration (concentration which gives 80% of the activity of the GPR43) and the Ca-flux was measured simultaneously to the trigger injection on a fluorescence plate reader (FlexStation3), this measures the antagonist activity of the compounds. To measure agonist activity of the compounds, compound was added to the well and the Ca-flux was measured simultaneously to the injection of compound.

GPR43 [2] = molecular target: T1, GPR43; experiment: Calcium mobilization assay with probenecid; assay type: cell-based; settings: GPR43 stably expressing cells; triggered with sodium acetate at EC80; 2.5 mM probenecid; read-out: GPR43 assay with probenicid IC50
Procedure, shortened: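 Cells stably expressing GPR43 plated overnight at 37 °C, then loaded 2 h with Calcium 4 dye plus 2.5 mM probenecid. […]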

Structure (SMILES)	IC50 (GPR43 [1]) [nM]	IC50 (GPR43 [2]) [nM]
CN(Cc1ccc(Cl)cc1)C(=O)C1(C)CCN1C(=O)Cc1cccc(-c2ccccc2)c1 (stereo not drawn) [Compound 27, 1-(2-Biphenyl-3-yl-acetyl)-2-methyl-azetidine-2-carboxylic acid (4-chloro-benzyl)-methyl-amide]	> 1000	> 1000
CN(Cc1ccc(Cl)cc1)C(=O)C1(C)CCN1C(=O)Cc1cccc(-c2ccccc2C(F)(F)F)c1 (stereo not drawn) [Compound 28, 2-Methyl-1-[2-(2′-trifluoromethyl-biphenyl-3-yl)-acetyl]-azetidine-2-carboxylic acid (4-chloro-benzyl)-methyl-amide]	> 1000	> 1000
CN(Cc1ccc(Cl)cc1)C(=O)C1(C)CCN1C(=O)Cc1cccc(-c2cccc(Cl)c2)c1 (stereo not drawn) [Compound 29, 1-[2-(3′-Chloro-biphenyl-3-yl)-acetyl]-2-methyl-azetidine-2-carboxylic acid (4-chloro-benzyl)-methyl-amide]	> 1000	> 1000
Cc1cc(C)cc(CC(=O)N2CCC2(C)C(=O)N(C)Cc2ccc(Br)cc2)c1 (stereo not drawn) [Compound 30, 1-[2-(3,5-Dimethyl-phenyl)-acetyl]-2-methyl-azetidine-2-carboxylic acid (4-bromo-benzyl)-methyl-amide]	> 1000	> 1000
Cc1cc(C)cc(CC(=O)N2CCC2(C)C(=O)N(C)Cc2ccc(C(C)C)cc2)c1 (stereo not drawn) [Compound 31, 1-[2-(3,5-Dimethyl-phenyl)-acetyl]-2-methyl-azetidine-2-carboxylic acid (4-isopropyl-benzyl)-methyl-amide]	501 to 1000	> 1000
Cc1cc(C)cc(CC(=O)N2CCC2(C)C(=O)N(C)Cc2ccc(C(C)(C)C)cc2)c1 (stereo not drawn) [Compound 32, 1-[2-(3,5-Dimethyl-phenyl)-acetyl]-2-methyl-azetidine-2-carboxylic acid (4-tert-butyl-benzyl)-methyl-amide]	> 1000	> 1000
Cc1cc(C)cc(CC(=O)N2CCC2(C)C(=O)N(C)Cc2ccc(C)cc2C)c1 (stereo not drawn) [Compound 33, 1-[2-(3,5-Dimethyl-phenyl)-acetyl]-2-methyl-azetidine-2-carboxylic acid (2,4-dimethyl-benzyl)-methyl-amide]	501 to 1000	> 1000
Cc1cc(C)cc(CC(=O)N2CCC2(C)C(=O)N(C)Cc2ccc(CC(C)C)cc2)c1 (stereo not drawn) [Compound 34, 1-[2-(3,5-Dimethyl-phenyl)-acetyl]-2-methyl-azetidine-2-carboxylic acid (4-isobutyl-benzyl)-methyl-amide]	> 1000	> 1000
CCN(Cc1ccc(Cl)cc1)C(=O)C1(C)CCN1C(=O)Cc1cc(C)cc(C)c1 (stereo not drawn) [Compound 35, 1-[2-(3,5-Dimethyl-phenyl)-acetyl]-2-methyl-azetidine-2-carboxylic acid (4-chloro-benzyl)-ethyl-amide]	101 to 500	101 to 500
Cc1cc(C)cc(CC(=O)N2CCC2(C)C(=O)N(C)Cc2ccc(Cl)cc2Cl)c1 (stereo not drawn) [Compound 36, 1-[2-(3,5-Dimethyl-phenyl)-acetyl]-2-methyl-azetidine-2-carboxylic acid (2,4-dichloro-benzyl)-methyl-amide]	> 1000	> 1000
Cc1cc(C)cc(CC(=O)N2CCC2(C)C(=O)N(C)Cc2ccc(OC(F)(F)F)cc2)c1 (stereo not drawn) [Compound 37, 1-[2-(3,5-Dimethyl-phenyl)-acetyl]-2-methyl-azetidine-2-carboxylic acid methyl-(4-trifluoromethoxy-benzyl)-amide]	501 to 1000	> 1000
COc1cccc(-c2ccc(CC(=O)N3CCC3(C)C(=O)N(C)Cc3ccc(Cl)cc3)cc2)c1 (stereo not drawn) [Compound 38, 1-[2-(3′-Methoxy-biphenyl-4-yl)-acetyl]-2-methyl-azetidine-2-carboxylic acid (4-chloro-benzyl)-methyl-amide]	> 1000	> 1000
Cc1cc(C)cc(CC(=O)N2CCC2(C)C(=O)N(C)Cc2ccc(Cl)c(F)c2)c1 (stereo not drawn) [Compound 42, 1-[2-(3,5-Dimethyl-phenyl)-acetyl]-2-methyl-azetidine-2-carboxylic acid (4-chloro-3-fluoro-benzyl)-methyl-amide]	> 1000	> 1000
Cc1ccc(CNC(=O)C2(C)CCN2C(=O)Cc2ccc(Cl)cc2Cl)cc1 (stereo not drawn) [Compound 43, 1-[2-(2,4-Dichloro-phenyl)-acetyl]-2-methyl-azetidine-2-carboxylic acid 4-methyl-benzylamide]	> 1000	> 1000
CC1(C(=O)NCc2ccc(C(F)(F)F)cc2)CCN1C(=O)Cc1ccc(Cl)cc1Cl (stereo not drawn) [Compound 44, 1-[2-(2,4-Dichloro-phenyl)-acetyl]-2-methyl-azetidine-2-carboxylic acid 4-trifluoromethyl-benzylamide]	> 1000	> 1000
CN(Cc1ccc(C(F)(F)F)cc1)C(=O)C1(C)CCN1C(=O)Cc1ccc(Cl)cc1Cl (stereo not drawn) [Compound 45, 1-[2-(2,4-Dichloro-phenyl)-acetyl]-2-methyl-azetidine-2-carboxylic acid methyl-(4-trifluoromethyl-benzyl)-amide]	> 1000	> 1000
Cc1cc(C)cc(CC(=O)N2CCC2(C)C(=O)N(Cc2ccc(Cl)cc2)C2CC2)c1 (stereo not drawn) [Compound 46, 1-[2-(3,5-Dimethyl-phenyl)-acetyl]-2-methyl-azetidine-2-carboxylic acid (4-chloro-benzyl)-cyclopropyl-amide]	> 1000	> 1000
COC(=O)CN(Cc1ccc(Cl)cc1)C(=O)C1(C)CCN1C(=O)Cc1cc(C)cc(C)c1 (stereo not drawn) [Compound 48, ((4-Chloro-benzyl)-{1-[2-(3,5-dimethyl-phenyl)-acetyl]-2-methyl-azetidine-2-carbonyl}-amino)-acetic acid methyl ester]	501 to 1000	501 to 1000
Cc1cc(C)cc(CC(=O)N2CCC2(C)C(=O)N(CC(=O)O)Cc2ccc(Cl)cc2)c1 (stereo not drawn) [Compound 49, ((4-Chloro-benzyl)-{1-[2-(3,5-dimethyl-phenyl)-acetyl]-2-methyl-azetidine-2-carbonyl}-amino)-acetic acid]	101 to 500	101 to 500
Cc1c(C(=O)N2CCC2(C)C(=O)N(C)Cc2ccc(Cl)cc2)oc2ccccc12 (stereo not drawn) [Compound 50, N-(4-chlorobenzyl)-N,2-dimethyl-1-(3-methylbenzofuran-2-carbonyl)azetidine-2-carboxamide]	> 1000	> 1000
Cc1cccc(CNC(=O)C2(C)CCN2C(=O)Cc2ccc(Cl)cc2Cl)c1 (stereo not drawn) [Compound 51, 1-[2-(2,4-Dichloro-phenyl)-acetyl]-2-methyl-azetidine-2-carboxylic acid 3-methyl-benzylamide]	> 1000	> 1000
CC1(C(=O)NCc2ccc(Cl)cc2)CCN1C(=O)C1(c2ccc(Cl)cc2Cl)CC1 (stereo not drawn) [Compound 52, N-(4-chlorobenzyl)-1-(1-(2,4-dichlorophenyl)cyclopropanecarbonyl)-2-methylazetidine-2-carboxamide]	> 1000	> 1000
CNC(=O)CN(Cc1ccc(Cl)cc1)C(=O)C1(C)CCN1C(=O)Cc1cc(C)cc(C)c1 (stereo not drawn) [Compound 53, 1-[2-(3,5-Dimethyl-phenyl)-acetyl]-2-methyl-azetidine-2-carboxylic acid (4-chloro-benzyl)-methylcarbamoylmethyl-amide]	101 to 500	101 to 500
Cc1cc(C)cc(CC(=O)N2CCC2(C)C(=O)N(CC(=O)N(C)C)Cc2ccc(Cl)cc2)c1 (stereo not drawn) [Compound 54, 1-[2-(3,5-Dimethyl-phenyl)-acetyl]-2-methyl-azetidine-2-carboxylic acid (4-chloro-benzyl)-dimethylcarbamoylmethyl-amide]	501 to 1000	> 1000
COC(=O)[C@H](C)N(Cc1ccc(Cl)cc1)C(=O)C1(C)CCN1C(=O)Cc1cc(C)cc(C)c1 (stereo partly drawn) [Compound 55, (S)-2-((4-Chloro-benzyl)-{1-[2-(3,5-dimethyl-phenyl)-acetyl]-2-methyl-azetidine-2-carbonyl}-amino)-propionic acid methyl ester]	> 1000	> 1000
COCCN(Cc1ccc(Cl)cc1)C(=O)C1(C)CCN1C(=O)Cc1cc(C)cc(C)c1 (stereo not drawn) [Compound 56, 1-[2-(3,5-Dimethyl-phenyl)-acetyl]-2-methyl-azetidine-2-carboxylic acid (4-chloro-benzyl)-(2-methoxy-ethyl)-amide]	> 1000	> 1000
CC1(C(=O)NCc2ccc(Cl)cc2)CCN1C(=O)Cc1csc2ccccc12 (stereo not drawn) [Compound 57, 1-(2-Benzo[b]thiophen-3-yl-acetyl)-2-methyl-azetidine-2-carboxylic acid 4-chloro-benzylamide]	> 1000	> 1000
